Assay results published in ChEMBL document CHEMBL1201862, “PubChem BioAssay data set” (2004).
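1) Cells in 96-well plates. 2) Compound, 48 h, 5 concentrations. 3) Linear interpolation between surrounding doses. 4) Unreached endpoint = highest concentration. The concentration for 50% growth inhibition is given as GI50.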 Calls of active or inactive are those of the source. Cut-off read from the data, not from the text of the source: active = GI50 up to about 1.1 µM and inactive = higher.

Tests used:
Assay in all cases: DTP human tumour cell line panel, 48 h
[1] = test system: SW-620
[2] = test system: RXF 393
[3] = test system: HOP-62
[4] = test system: M14
[5] = test system: COLO 205
[6] = test system: HCC 2998
[7] = test system: M19-MEL
[8] = test system: SNB-78
[9] = test system: UACC-257
[10] = test system: OVCAR-3
[11] = test system: K562
[12] = test system: DMS-114
[13] = test system: RPMI-8226
[14] = test system: SF-295
[15] = test system: SF-268
[16] = test system: SK-OV-3
[17] = test system: SNB-75
[18] = test system: SK-MEL-2
[19] = test system: U-251
[20] = test system: HOP-92
[21] = test system: XF498
[22] = test system: SK-MEL-28
[23] = test system: NCI-H522
[24] = test system: LOX IMVI
[25] = test system: RXF 631
[26] = test system: UACC-62
[27] = test system: OVCAR-8
[28] = test system: DLD-1
[29] = test system: HCT-116
[30] = test system: IGROV-1
[31] = test system: EKVX
[32] = test system: LXFL 529
[33] = test system: 786-0
[34] = test system: NCI-H460
[35] = test system: SK-MEL-5
[36] = test system: KM12
[37] = test system: ACHN
[38] = test system: HT-29
[39] = test system: DMS-273
[40] = test system: MOLT-4
[41] = test system: OVCAR-5
[42] = test system: TK-10
[43] = test system: A498
[44] = test system: NCI-H23
[45] = test system: A549
[46] = test system: CCRF-CEM
[47] = test system: KM-20L2
[48] = test system: HL-60
[49] = test system: Malme-3M
[50] = test system: SF-539
[51] = test system: SN12C
[52] = test system: HOP-18
[53] = test system: NCI-H226
[54] = test system: OVCAR-4
[55] = test system: CAKI-1
[56] = test system: SR
[57] = test system: UO-31
[58] = test system: SNB-19

Measured: GI50

COC(=O)N/N=C(\Cc1ccccc1)CN(C)C
inactive: [1] > 100 µM | [2] > 100 µM | [3] > 100 µM | [4] > 100 µM | [5] > 100 µM | [6] > 100 µM | [7] > 100 µM | [8] > 100 µM | [9] > 100 µM | [10] > 100 µM | [11] > 100 µM | [12] > 100 µM | [13] > 100 µM | [14] > 100 µM | [15] > 100 µM | [16] > 100 µM | [17] > 100 µM | [18] > 100 µM | [19] > 100 µM | [20] > 100 µM | [21] > 100 µM | [22] > 100 µM | [23] > 100 µM | [24] > 100 µM | [25] > 100 µM | [26] > 100 µM | [27] > 100 µM | [28] > 100 µM | [29] > 100 µM | [30] > 100 µM | [31] > 100 µM | [32] > 100 µM | [33] > 100 µM | [34] > 100 µM | [35] > 100 µM | [36] > 100 µM | [37] > 100 µM | [38] > 100 µM | [39] > 100 µM | [40] > 100 µM | [41] > 100 µM | [42] > 100 µM | [43] > 100 µM | [44] > 100 µM | [45] > 100 µM | [46] > 100 µM | [47] > 100 µM | [48] > 100 µM | [49] > 100 µM | [50] > 100 µM

O=C(COC(=O)c1cccc2c(=O)c3ccccc3[nH]c12)Nc1ccc(C(=O)O)cc1
inactive: [1] > 100 µM | [2] 46.8 µM | [3] > 100 µM | [4] > 100 µM | [5] > 100 µM | [6] > 100 µM | [7] > 100 µM | [8] 59.3 µM | [51] > 100 µM | [52] > 100 µM | [9] > 100 µM | [10] 50 µM | [11] 70.6 µM | [12] 61.8 µM | [14] > 100 µM | [15] > 100 µM | [16] > 100 µM | [17] 42.5 µM | [19] > 100 µM | [20] > 100 µM | [21] 29.6 µM | [22] > 100 µM | [23] 43.7 µM | [24] > 10 µM | [53] > 10 µM | [25] > 100 µM | [26] 71 µM | [27] 78.7 µM | [28] > 100 µM | [29] 84.7 µM | [30] 99.1 µM | [31] > 100 µM | [33] > 100 µM | [34] > 100 µM | [54] > 100 µM | [35] > 100 µM | [55] > 100 µM | [36] 47.2 µM | [56] 30.8 µM | [57] 71.3 µM | [37] > 100 µM | [38] > 100 µM | [40] 37.8 µM | [42] > 10 µM | [43] > 100 µM | [44] > 100 µM | [58] > 100 µM | [45] > 100 µM | [46] 69.5 µM | [47] > 100 µM | [48] 94 µM | [49] > 100 µM | [50] > 100 µM
